Series [1] in a line: Peak plasma / gut / hepatic inlet concentration at the highest clinical dose. The format is in vivo, human. To be noted: for Maximal hepatic inlet concentration ([I]inlet,max): Cmax + (ka x Dose x FaFg/Qh); for Inhibitor concentration ([I]): [I] equal to Cmax.
A short description of series [2]: INPC cohort study: risk of myopathy after prescription of drug pairs. To be noted: adjusted for age and sex; for Risk2 (myopathy risk for drug 2): drug 2 only.
A further series has as its target T1, OATP1B2 (Rattus norvegicus, UniProt Q9QZX8).
T1 sequence (Q9QZX8 1-687): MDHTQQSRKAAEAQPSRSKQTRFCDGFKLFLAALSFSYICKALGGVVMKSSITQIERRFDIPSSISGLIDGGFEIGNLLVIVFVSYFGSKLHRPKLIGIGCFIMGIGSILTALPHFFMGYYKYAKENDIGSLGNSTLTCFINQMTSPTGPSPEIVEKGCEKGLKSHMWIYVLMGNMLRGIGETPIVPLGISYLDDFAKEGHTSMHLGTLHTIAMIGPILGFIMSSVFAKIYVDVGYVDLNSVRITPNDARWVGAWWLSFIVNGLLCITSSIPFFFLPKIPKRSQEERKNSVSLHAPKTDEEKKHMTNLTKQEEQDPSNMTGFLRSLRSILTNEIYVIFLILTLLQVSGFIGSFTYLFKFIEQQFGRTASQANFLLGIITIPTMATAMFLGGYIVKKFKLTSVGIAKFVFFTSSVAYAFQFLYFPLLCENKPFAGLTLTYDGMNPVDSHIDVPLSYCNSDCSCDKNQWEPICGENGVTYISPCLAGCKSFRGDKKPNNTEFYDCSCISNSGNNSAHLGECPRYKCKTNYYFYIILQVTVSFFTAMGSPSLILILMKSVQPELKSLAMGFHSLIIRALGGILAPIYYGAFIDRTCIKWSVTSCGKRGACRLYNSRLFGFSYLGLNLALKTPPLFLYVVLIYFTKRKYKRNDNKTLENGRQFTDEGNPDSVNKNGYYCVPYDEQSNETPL
In words: Inhibition of E217βDG active uptake in cryopreserved rat hepatocytes. To be noted: for Predicted R value: OATP1B1/1B3-based DDI, 1 + [I]inlet,max/Ki, Ki approximated by IC50; for inhibition at 3 min, 100 μM: rat, cryopreserved rat hepatocytes, probe [3H] β-estradiol 17-β-D-glucuronide (E217βDG), 1 μM, 0.1 μCi.

For a further series, the target named is CYP2C19 (Homo sapiens, UniProt P33261). Kind of series: Fluorometric CYP inhibition assay. The format is biochemical. To be noted: for Ki: pathway CYP2C19.
The subject of another series is rat L6 myotubes. Kind of series: Myotoxicity in rat L6 myotubes. In kind it is cell-based. To be noted: 10 μM for 5 days, compared to DMSO control.
The target in series [3] is T2, CYP2C9 (Homo sapiens, UniProt P11712).
Series [4] has as its target T3, CYP2D6 (Homo sapiens, UniProt P10635).
A further series deals with CYP3A4 (Homo sapiens, UniProt P08684).
For series [5] the following is noted: peak total plasma concentration at the highest clinical dose; cited from earlier work.
Series [6] has as its target T2, CYP2C9. Kind of series: biochemical. To be noted: pathway CYP2C9.
In series [7] the target is T3, CYP2D6. Kind of series: biochemical.
For series [8] the following is noted: cited from earlier work.
Setting [9] is: Unbound dissociation constant (Ki,u), Ki * fu,inc.
Setting [10] is: Dissociation constant (Ki), pathway CYP2D6.
Where [11] appears, read: Unbound dissociation constant (Ki,u), pathway CYP2D6, Ki * fu,inc.

“And” between values parts separate entries of the source, which are not always exact repeats. Equal values may be shown once. Read-outs that look alike come from different tables or passages of the source.

T3 sequence (P10635 whole entry): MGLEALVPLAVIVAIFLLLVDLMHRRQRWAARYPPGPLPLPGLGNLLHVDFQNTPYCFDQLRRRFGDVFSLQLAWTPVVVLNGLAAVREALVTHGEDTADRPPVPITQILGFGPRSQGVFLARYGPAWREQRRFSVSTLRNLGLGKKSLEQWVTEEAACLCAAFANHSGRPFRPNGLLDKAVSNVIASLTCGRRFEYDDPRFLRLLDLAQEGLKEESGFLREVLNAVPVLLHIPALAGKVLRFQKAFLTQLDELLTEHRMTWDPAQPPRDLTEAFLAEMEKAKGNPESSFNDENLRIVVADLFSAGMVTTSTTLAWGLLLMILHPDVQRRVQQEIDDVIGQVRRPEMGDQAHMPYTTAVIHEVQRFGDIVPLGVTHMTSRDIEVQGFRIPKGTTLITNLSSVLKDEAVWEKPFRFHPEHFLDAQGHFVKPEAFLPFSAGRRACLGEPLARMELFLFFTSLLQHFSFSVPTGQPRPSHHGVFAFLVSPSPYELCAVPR
CYP2C19, sequence (P33261 whole entry): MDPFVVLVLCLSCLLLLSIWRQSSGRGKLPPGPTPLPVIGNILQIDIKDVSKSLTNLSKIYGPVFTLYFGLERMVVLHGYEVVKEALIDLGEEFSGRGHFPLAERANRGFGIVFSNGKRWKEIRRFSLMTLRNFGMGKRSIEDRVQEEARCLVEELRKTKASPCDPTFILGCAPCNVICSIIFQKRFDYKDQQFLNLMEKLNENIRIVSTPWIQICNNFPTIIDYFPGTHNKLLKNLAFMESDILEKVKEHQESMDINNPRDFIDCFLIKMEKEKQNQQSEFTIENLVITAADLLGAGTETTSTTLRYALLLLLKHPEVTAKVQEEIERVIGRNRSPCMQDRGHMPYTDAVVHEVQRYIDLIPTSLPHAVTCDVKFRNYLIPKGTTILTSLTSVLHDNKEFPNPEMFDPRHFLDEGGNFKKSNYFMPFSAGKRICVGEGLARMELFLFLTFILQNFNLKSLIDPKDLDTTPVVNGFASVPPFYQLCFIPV
T2 sequence (P11712 whole entry): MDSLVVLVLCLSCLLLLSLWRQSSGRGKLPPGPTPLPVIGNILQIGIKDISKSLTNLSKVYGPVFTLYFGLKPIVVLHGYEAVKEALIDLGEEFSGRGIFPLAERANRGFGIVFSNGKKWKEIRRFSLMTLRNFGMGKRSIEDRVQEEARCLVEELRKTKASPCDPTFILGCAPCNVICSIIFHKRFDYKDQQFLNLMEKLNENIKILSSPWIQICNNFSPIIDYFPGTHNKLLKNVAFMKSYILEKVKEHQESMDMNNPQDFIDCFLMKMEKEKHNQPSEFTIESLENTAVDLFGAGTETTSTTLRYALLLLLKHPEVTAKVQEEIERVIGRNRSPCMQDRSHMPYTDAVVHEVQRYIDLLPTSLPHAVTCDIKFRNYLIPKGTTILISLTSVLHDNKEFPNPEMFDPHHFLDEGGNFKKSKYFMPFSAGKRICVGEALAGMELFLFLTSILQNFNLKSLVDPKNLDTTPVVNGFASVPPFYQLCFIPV
CYP3A4, sequence (P08684 whole entry): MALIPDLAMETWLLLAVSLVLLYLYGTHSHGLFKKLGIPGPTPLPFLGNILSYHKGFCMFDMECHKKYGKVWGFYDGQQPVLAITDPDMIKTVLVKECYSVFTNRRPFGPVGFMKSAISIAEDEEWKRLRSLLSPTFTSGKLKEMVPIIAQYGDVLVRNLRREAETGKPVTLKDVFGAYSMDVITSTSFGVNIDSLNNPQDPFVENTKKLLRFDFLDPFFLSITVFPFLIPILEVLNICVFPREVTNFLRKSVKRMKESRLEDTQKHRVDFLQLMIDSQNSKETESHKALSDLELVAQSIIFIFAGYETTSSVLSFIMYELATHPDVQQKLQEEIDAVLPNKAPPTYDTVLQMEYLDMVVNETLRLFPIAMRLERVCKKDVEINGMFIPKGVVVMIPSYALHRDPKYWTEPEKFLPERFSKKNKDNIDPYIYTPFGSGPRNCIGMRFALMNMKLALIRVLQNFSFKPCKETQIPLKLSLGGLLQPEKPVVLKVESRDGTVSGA

With `Cc1nnc2n1-c1ccc(Cl)cc1C(c1ccccc1)=NC2` [Alprazolam], the “Maximal hepatic inlet concentration ([I]inlet,max)” value (“Maximal hepatic inlet concentration” below) in series [1] amounted to 0.981 µM. For the same compound, in series [2], the “Risk2 (myopathy risk for drug 2)” value came out at 0.029. At OATP1B2, half-maximal inhibition (IC50) required 99.5 µM; the “Predicted R value” was 1.01; the inhibition – broadly, the drop in the measured response relative to a control, in per cent – at 3 min, 100 μM came to 54.5 ± 0.3%.

On to `[H]/N=C(/NCCCCC)N/N=C/c1c[nH]c2ccc(OC)cc12` [Tegaserod], for which the “Predicted R-values” was 1.00 at CYP2C19, 1.00 at CYP2C9 [3], 1.02 at CYP2D6 [4] and 1.17 on CYP3A4. Moreover, the Ki (as a rule, the dissociation constant of the complex between target and ligand, obtained from inhibition or displacement) is 9.2 µM at CYP2C19 (Dissociation constant (Ki)); 8.48 µM on CYP2C19 (setting [9]); 11.4 µM at CYP2C9 [6] (Dissociation constant (Ki)); 10.5 µM at CYP2C9 [6] (setting [9]); 0.51 µM on CYP2D6 [7] (setting [10]); 0.47 µM on CYP2D6 [7] (setting [11]). The “Inhibitor concentration ([I])” value in series [1] is listed as 0.009 µM. Moreover, the myotube death in the series with rat L6 myotubes worked out at 97.9 ± 0.4%. Besides, in series [5], the “Peak plasma concentration (Cmax)” value is recorded as 2.7 (39) ng/ml. Also, the “Risk2 (myopathy risk for drug 2)” value in series [2] is 0.020. For the same compound, the inhibition at 3 min, 100 μM against OATP1B2 worked out at 24.6 ± 15.3%.

As for `COc1ccc2[nH]c([S+]([O-])Cc3ncc(C)c(OC)c3C)nc2c1` (stereo not drawn) [Omeprazole], in series [1], the “Maximal hepatic inlet concentration” value amounted to 19.586 µM. In addition, the “Risk2 (myopathy risk for drug 2)” value in series [2] was 0.059. For the same compound, on OATP1B2, inhibition was half-maximal at 84.3 µM (IC50); the “Predicted R value” is 1.23; the inhibition at 3 min, 100 μM is 60.1 ± 4.8%.

For `COCc1c(C(C)C)nc(C(C)C)c(/C=C/[C@@H](O)C[C@@H](O)CC(=O)O)c1-c1ccc(F)cc1` [cerivastatin], the “risk of rhabdomyolysis relative to other statins” value in series [8] is given as 10 fold; in series [8] (with concurrent use of gemfibrozil), 50 fold.

For the compound `Clc1ccc2c(c1)CCc1cccnc1C2=C1CCNCC1` [Desloratadine], the myotube death in the series on rat L6 myotubes is given as 73.3 ± 1.1%.

On to `CC(CN1c2ccccc2Sc2ccccc21)N(C)C` (stereo not drawn) [Promethazine], for which the “Inhibitor concentration ([I])” value in series [1] was determined as 0.068 µM. Also, the “Peak plasma concentration (Cmax)” value in series [5] is listed as 19.3 (36) ng/ml. For the same compound, the Ki at CYP2D6 [7] (Dissociation constant (Ki)) is 0.25 µM; on CYP2D6 [7] (Unbound dissociation constant (Ki,u)), 0.22 µM. This compound also had an inhibition at 3 min, 100 μM against OATP1B2 of 17.7 ± 7.7%.

Regarding `CCC(C)(C)C(=O)O[C@H]1C[C@@H](C)C=C2C=C[C@H](C)[C@H](CC[C@@H]3C[C@@H](O)CC(=O)O3)[C@H]21` [Simvastatin], the myotube death with rat L6 myotubes stood at 73.7 ± 2.6%. Besides, the “Risk2 (myopathy risk for drug 2)” value in series [2] stood at 0.033.

For the compound `CCC(C)(C)C(=O)O[C@H]1C[C@@H](C)C=C2C=C[C@H](C)[C@H](CC[C@@H](O)C[C@@H](O)CC(=O)O)[C@H]21` [Simvastatin acid], the “Maximal hepatic inlet concentration” value in series [1] came out at 12.274 µM. In the series with rat L6 myotubes, this compound returned a myotube death of 33.0 ± 2.1%.

Take `CCCN(CCC)CCc1cccc2c1CC(=O)N2` [Ropinirole]: the “Inhibitor concentration ([I])” value in [1] is on record as 0.103 µM. In [5], the “Peak plasma concentration (Cmax)” value is 26.9 (37) ng/ml. Moreover, the Ki at CYP2D6 [7] (setting [10]) was found to be 0.85 µM; on CYP2D6 [7] (setting [11]), 0.71 µM. The “Risk2 (myopathy risk for drug 2)” value in [2] was found to be 0.018. On OATP1B2, this compound returned an inhibition at 3 min, 100 μM of 23.7 ± 2.7%.

As for `CCOC(=O)N1CCC(=C2c3ccc(Cl)cc3CCc3cccnc32)CC1` [Loratadine], in series [1], the “Inhibitor concentration ([I])” value was found to be 0.011 µM. Further, the “Risk1 (myopathy risk for drug 1)” value in series [2] (drug 1 only) is 0.022 and 0.020.

The values above are taken from publication PMC4664558 (Clinical Pharmacology and Therapeutics, 2015).
